{
  "source": "paper PMC5453556",
  "about": "“Designing small molecules to target cryptic pockets yields both positive and negative allosteric modulators” (PLoS ONE, 2017)",
  "assay_type_in_all_cases": "biochemical",
  "key": {"β-galactosidase": {"test_system": "β-galactosidase", "test": "β-galactosidase reaction, test for non-specific activity (420 nm)", "conditions": "alternative enzyme β-galactosidase; 4 nM enzyme, 1 mM 2-nitrophenyl β-D-galactopyranoside, 37°C", "procedure": "(§1) Chymotrypsin reactions were followed at 410 nm using 30 nM enzyme and 200 μM N-succinyl-Ala-Ala-Pro-Phe p-nitroanilide at 25°C. β-galactosidase reactions were followed at 420 nm using 4 nM enzyme and 1 mM 2-nitrophenyl β-D-galactopyranoside at 37°C. […] Enzymes and substrates were purchased from Sigma-Aldrich."}, "chymotrypsin": {"molecular_target": "T1, chymotrypsin (Bos taurus, UniProt P00766)", "T1 construct": "purchased Sigma-Aldrich", "test": "Chymotrypsin reaction, test for non-specific activity (410 nm)", "conditions": "alternative enzyme chymotrypsin; 30 nM enzyme, 200 μM N-succinyl-Ala-Ala-Pro-Phe p-nitroanilide, 25°C", "procedure": "as §1"}, "[1]": {"molecular_target": "TEM β-lactamase (TEM, M182T variant) (Escherichia coli, UniProt P62593, M180T)", "test": "TEM β-lactamase nitrocefin hydrolysis activity assay (UV-vis, 482 nm)", "conditions": "for % change in rate: 50 µM nitrocefin; for kcat: TEM + 100 µM compound, nitrocefin"}, "TEM L220N": {"molecular_target": "TEM L220N (Escherichia coli, UniProt P62593, L218N/M180T)"}, "TEM T265V": {"molecular_target": "TEM T265V (Escherichia coli, UniProt P62593, M180T/T261V)"}, "[2]": {"conditions": "detergent-dependence: 0% Triton-X"}, "[3]": {"conditions": "detergent-dependence: 0.01% Triton-X"}},
  "data": [
    {"smiles": "COc1cccc(C(=O)C[C@@H](c2ccccc2)C(C)(C)[N+](=O)[O-])c1", "note": "(racemic) [compound 3]", "values": [
      {"measurement": "% change in rate", "setting": "β-galactosidase", "value": "+3%"},
      {"measurement": "% change in rate", "setting": "chymotrypsin", "value": -2, "unit": "%"},
      {"measurement": "% change in rate", "setting": "[1]; 10x enzyme test: 1 nM TEM", "value": -47, "unit": "%"},
      {"measurement": "% change in rate", "setting": "[1]; 10x enzyme test: 10 nM TEM", "value": -48, "unit": "%"},
      {"measurement": "kcat", "setting": "[1]", "value": "256 ± 28", "unit": "s⁻¹"},
      {"measurement": "% modulation of kcat / Km", "setting": "[1]; TEM, 100 µM compound vs no compound", "value": -59, "unit": "%"},
      {"measurement": "decrease of kcat/Km", "setting": "[1]; TEM, as worded in the text (decreasing kcat/Km by)", "value": 59, "unit": "%"},
      {"measurement": "% change in rate", "setting": "[1]; [2]", "value": -40, "unit": "%"},
      {"measurement": "% change in rate", "setting": "[1]; [3]", "value": -45, "unit": "%"}
    ]},
    {"smiles": "Oc1ccc(CC[C@H]2CC[C@H](c3ccc(O)cc3)CO2)cc1", "note": "(relative stereo) [compound 1]", "values": [
      {"measurement": "% change in rate", "setting": "β-galactosidase", "value": "+2%"},
      {"measurement": "% change in rate", "setting": "chymotrypsin", "value": -5, "unit": "%"},
      {"measurement": "kcat", "setting": "TEM L220N", "value": "5.2 ± 0.3", "unit": "s⁻¹"},
      {"measurement": "% change in rate", "setting": "[1]; 10x enzyme test: 1 nM TEM", "value": "+65%"},
      {"measurement": "kcat", "setting": "[1]", "value": "527 ± 8", "unit": "s⁻¹"},
      {"measurement": "% change in rate", "setting": "[1]; [3]", "value": "+66%"}
    ]},
    {"smiles": "c1nc(NCCCN2CCOCC2)c2c3c(sc2n1)CCCC3", "note": "[compound 2]", "values": [
      {"measurement": "kcat", "setting": "TEM T265V", "value": "307 ± 17", "unit": "s⁻¹"},
      {"measurement": "% change in rate", "setting": "β-galactosidase", "value": "+5%"},
      {"measurement": "% change in rate", "setting": "chymotrypsin", "value": -1, "unit": "%"},
      {"measurement": "% change in rate", "setting": "[1]; 10x enzyme test: 1 nM TEM", "value": "+38%"},
      {"measurement": "% change in rate", "setting": "[1]; 10x enzyme test: 10 nM TEM", "value": "+33%"},
      {"measurement": "kcat", "setting": "[1]", "value": "334 ± 5", "unit": "s⁻¹"},
      {"measurement": "% change in rate", "setting": "[1]; [2]", "value": "+30%"},
      {"measurement": "% change in rate", "setting": "[1]; [3]", "value": "+33%"}
    ]}
  ]
}
